The compounds below were run on HBeAg (surrogate marker for cccDNA) in HepDES19 cells (assay: Engineered HepDES19 primary screen assay (HBeAg ELISA)). Conditions: Hepatitis B virus, HepDES19, 120 h, read-out: IC50 (HBeAg level, HepDES19 primary screen assay), HepDES19 cells, 5 days compound incubation, HBeAg ELISA.
Assay type: cell-based, HBV
Text: The assay was employed to screen for novel cccDNA inhibitors. HepDES19 is a cccDNA-producing cell line. In this cell line, HBeAg in the cell culture supernatant as surrogate marker, as HBeAg production depends on cccDNA level and activity. HepDES19 is an engineered cell line which contains a 1.1 unit length HBV genome, and pgRNA transcription from the transgene is controlled by Tetracycline (Tet). In the absence of Tet, pgRNA transcription will be induced, but HBV e antigen (HBeAg) could not be produced from this pgRNA due to very short leader sequence before the HBeAg start codon and the start codon is disrupted. Only after cccDNA is formed, the missing leader sequence and start codon mutation would be restored from the 3′-terminal redundancy of pgRNA, and then HBeAg could be synthesized. Therefore, HBeAg could be used as a surrogate marker for cccDNA (Zhou, T. et al., Antiviral Res. (2006), 72(2), 116-124; Guo, H. et al., J. Virol. (2007), 81(22), 12472-12484).
HepDES19 cells were seeded at 2×10^6 cells per T150 flask and cultured with the culture medium (Dulbecco's Modified Eagle Medium: Nutrient Mixture F-12 [DMEM-F12, Gibco Cat. 11320-82], 10% Fetal Bovine Serum [FBS, Clontech Cat. 631101], 0.1 mM Non-Essential Amino Acids Solution [NEAA, Gibco Cat. 11140-050], 50 μg/mL Penicillin-Streptomycin [PS, Invitrogen Cat. 15140-163], 500 μg/mL Geneticin [G418, Invitrogen Cat. 10131-027]) containing 3 μg/mL Tet (Sigma, Cat. 87128) for 5 days. Cells were then seeded at 4×10^6 cells per T150 in the same culture medium as described above in the absence of Tet for 8 days. Cells were then harvested and frozen at density of 2×10^6 cells per mL. For compound testing, the frozen cells were thawed and seeded into 96-well plates at a density of 6×10^4 cells per well. At 24 hours after seeding, half log serial dilutions of compounds made with Dimethyl sulfoxide (DMSO, Sigma, Cat. D2650) were further diluted with the same culture medium as described above before they were added to the cells to reach desired final compound concentrations and 1% DMSO concentration. Plates were then incubated at 37° C. for another 5 days before measurement of HBeAg level and cell viability. […] HBeAg level were measured with enzyme-linked immunosorbent assay (ELISA) kit (Shanghai Kehua Diagnostic Medical Products Co., Ltd). Cell viability was assessed using Cell Counting Kit-8 (DonJindo, Cat. CK04-20). IC50 values were derived from the dose-response curve using 4 parameter logistic curve fit method.
The compounds of the present invention were tested for their capacity to inhibit extracellular HBeAg level as described herein.

Compound	IC50 [µM]
O=C(O)[C@H]1CC[C@@H](Oc2cc(Br)ccc2-c2cc(=O)c3cccc(Cl)c3o2)C1 (relative stereo) [Example B028-A, Cis-3-[5-bromo-2-(8-chloro-4-oxo-chromen-2-yl)phenoxy]cyclopentanecarboxylic acid]	0.471
O=C(O)CCOc1cc(Br)c(OC(F)(F)F)cc1-c1cc(=O)c2cccc(Cl)c2o1 [Example A014, 3-[5-bromo-2-(8-chloro-4-oxo-chromen-2-yl)-4-(trifluoromethoxy)phenoxy]propanoic acid]	3.22
O=C(O)CCOc1cc(OC(F)(F)F)ccc1-c1cc(=O)c2ccc(Br)c(Cl)c2o1 [Example A023, 3-[2-(7-bromo-8-chloro-4-oxo-chromen-2-yl)-5-(trifluoromethoxy)phenoxy]propanoic acid]	29.6
Cc1cc(-c2cc(=O)c3cccc(Br)c3o2)c(OCCC(=O)O)cc1Cl [Example A025, 3-[2-(8-bromo-4-oxo-chromen-2-yl)-5-chloro-4-methyl-phenoxy]propanoic acid]	3.55
COC(=O)CCOc1cc(Cl)c(C)cc1-c1cc(=O)c2cccc(Cl)c2o1 [Example A038, methyl 3-[5-chloro-2-(8-chloro-4-oxo-chromen-2-yl)-4-methyl-phenoxy]propanoate]	4.79
O=C(O)CCOc1cc(C(F)(F)F)ccc1-c1cc(=O)c2c(O)ccc(Cl)c2o1 [Example A045, 3-[2-(8-chloro-5-hydroxy-4-oxo-chromen-2-yl)-5-(trifluoromethyl)phenoxy]propanoic acid]	2.03
O=C(O)COc1cc(OC(F)(F)F)ccc1-c1cc(=O)c2cccc(Cl)c2o1 [Example A048, 2-[2-(8-chloro-4-oxo-chromen-2-yl)-5-(trifluoromethoxy)phenoxy]acetic acid]	9.38
O=C(O)CCCCCCOc1cc(C(F)(F)F)ccc1-c1cc(=O)c2cccc(Cl)c2o1 [Example A066, 7-[2-(8-chloro-4-oxo-chromen-2-yl)-5-(trifluoromethyl)phenoxy]heptanoic acid]	2.44
Cc1cc(-c2cc(=O)c3cccc(Cl)c3o2)c(OCC2(CC(=O)O)CC2)cc1Br [Example A068, 2-[1-[[5-bromo-2-(8-chloro-4-oxo-chromen-2-yl)-4-methyl-phenoxy]methyl]cyclopropyl]acetic acid]	5.7
O=C(O)c1cccc(COc2cc(Br)ccc2-c2cc(=O)c3cccc(Cl)c3o2)c1 [Example A072, 3-[[5-bromo-2-(8-chloro-4-oxo-chromen-2-yl)phenoxy]methyl]benzoic acid]	0.366
CS(=O)(=O)C1CCN(C(=O)COc2cc(C(F)(F)F)ccc2-c2cc(=O)c3cccc(Cl)c3o2)C1 (stereo not drawn) [Example A087, 8-chloro-2-[2-[2-(3-methylsulfonylpyrrolidin-1-yl)-2-oxo-ethoxy]-4-(trifluoromethyl)phenyl]chromen-4-one]	4.98
CCNS(=O)(=O)N[C@@H](COc1cc(C(F)(F)F)ccc1-c1cc(=O)c2cccc(Cl)c2o1)C(=O)OC [Example A098, methyl (2S)-3-[2-(8-chloro-4-oxo-chromen-2-yl)-5-(trifluoromethyl)phenoxy]-2-(ethylsulfamoylamino)propanoate]	0.036
COc1cc(OC2CC(C(=O)O)C2)c(-c2cc(=O)c3cccc(Cl)c3o2)cc1OC (stereo not drawn) [Example B006, 3-[2-(8-chloro-4-oxo-chromen-2-yl)-4,5-dimethoxy-phenoxy]cyclobutanecarboxylic acid]	5.48
COc1ccc(-c2cc(=O)c3cccc(Cl)c3o2)c(O[C@H]2C[C@H](C(=O)O)C2)c1 [Example B011-B, Trans-3-[2-(8-chloro-4-oxo-chromen-2-yl)-5-methoxy-phenoxy]cyclobutanecarboxylic acid]	3.48
COc1cc(O[C@H]2C[C@H](C(=O)O)C2)c(-c2cc(=O)c3cccc(Cl)c3o2)cc1Br [Example B014, Trans-3-[4-bromo-2-(8-chloro-4-oxo-chromen-2-yl)-5-methoxy-phenoxy]cyclobutanecarboxylic acid]	15.5
CC(C)c1ccc(-c2cc(=O)c3cccc(Cl)c3o2)c(O[C@H]2C[C@@H](C(=O)O)C2)c1 [Example B020-A, Cis-3-[2-(8-chloro-4-oxo-chromen-2-yl)-5-isopropyl-phenoxy]cyclobutanecarboxylic acid]	2.84
COc1ccc(OC[C@H]2C[C@@H](C(=O)O)C2)c(-c2cc(=O)c3cccc(Cl)c3o2)c1 [Example B027-A]	2.47
O=c1cc(-c2ccc(C3CC3)cc2O[C@H]2C[C@H](C(=O)O)C2)oc2c(Cl)cccc12 [Example B035-B, trans-3-[2-(8-chloro-4-oxo-chromen-2-yl)-5-cyclopropyl-phenoxy]cyclobutanecarboxylic acid]	2.02
O=c1cc(-c2ccc(Br)cc2O[C@H]2C[C@H](C(=O)O)C2)oc2c(Cl)ccc(O)c12 [Example B036-B, trans-3-[5-bromo-2-(8-chloro-5-hydroxy-4-oxo-chromen-2-yl)phenoxy]cyclobutanecarboxylic acid]	0.407
Cc1ccc(-c2cc(=O)c3c(O)ccc(Cl)c3o2)c(O[C@H]2C[C@H](C(=O)O)C2)c1 [Example B037-B, Trans-3-[2-(8-chloro-5-hydroxy-4-oxo-chromen-2-yl)-5-methyl-phenoxy]cyclobutanecarboxylic acid]	0.149
CCOc1ccc(-c2cc(=O)c3c(O)ccc(Cl)c3o2)c(O[C@H]2C[C@@H](C(=O)O)C2)c1 [Example B039-A, Cis-3-[2-(8-chloro-5-hydroxy-4-oxo-chromen-2-yl)-5-ethoxy-phenoxy]cyclobutanecarboxylic acid]	6.76
Cc1cc(-c2cc(=O)c3c(O)ccc(Cl)c3o2)c(O[C@H]2C[C@@H](C(=O)O)C2)cc1Br [Example B040-A, cis-3-[5-bromo-2-(8-chloro-5-hydroxy-4-oxo-chromen-2-yl)-4-methyl-phenoxy]cyclobutanecarboxylic acid]	0.302
Cc1cc(-c2cc(=O)c3cccc(Cl)c3o2)c(O[C@H]2C[C@H](C(=O)NS(C)(=O)=O)C2)cc1Br [Example B049-B, Trans-3-[5-bromo-2-(8-chloro-4-oxo-chromen-2-yl) 4-methyl-phenoxy]-N-methylsulfonyl-cyclobutanecarboxamide]	8.74
COc1cc(O[C@H]2C[C@@H](C(=O)NS(C)(=O)=O)C2)c(-c2cc(=O)c3cccc(Cl)c3o2)cc1Br [Example B055-A, Cis-3-[4-bromo-2-(8-chloro-4-oxo-chromen-2-yl)-5-methoxy-phenoxy]-N-methylsulfonyl-cyclobutanecarboxamide]	3.59
O=C(O)[C@@H]1C[C@H](Oc2cc(Br)ccc2-c2cc(=O)c3cccc(Cl)c3o2)CN1 [Example B075, (2S,4S)-4-[5-bromo-2-(8-chloro-4-oxo-chromen-2-yl)phenoxy]pyrrolidine-2-carboxylic acid]	0.774
COc1cccc(S(=O)(=O)N2C[C@@H](Oc3cc(C(F)(F)F)ccc3-c3cc(=O)c4cccc(Cl)c4o3)C[C@H]2C(=O)O)c1 [Example B079]	1.52
COc1cc(O[C@H]2C[C@@H](C(=O)O)N(S(=O)(=O)c3ccccc3)C2)c(-c2cc(=O)c3cccc(Cl)c3o2)cc1OC [Example B081]	3.11
O=C(O)[C@@H]1C[C@H](Oc2cc(OC(F)(F)F)ccc2-c2cc(=O)c3cccc(Cl)c3o2)CN1S(=O)(=O)c1ccccc1 [Example B085, (2S,4S)-1-(benzenesulfonyl)-4-[2-(8-chloro-4-oxo-chromen-2-yl)-5-(trifluoromethoxy)phenoxy]pyrrolidine-2-carboxylic acid]	4.57
O=c1cc(-c2ccc(Br)cc2OCCO[C@H]2C[C@H](C(=O)O)C2)oc2c(Cl)cccc12 [Example C003-B, tram-3-[2-[5-bromo-2-(8-chloro-4-oxo-chromen-2-yl)phenoxy]ethoxy]cyclobutanecarboxylic acid]	1.34

Same assay, conditions: read-out: IC50 (HBeAg level, HepDES19 primary screen assay); HepDES19 cells, 5 days compound incubation, HBeAg ELISA

Compound	IC50 [µM]
O=C(O)C1CC(COc2cc(Br)ccc2-c2cc(=O)c3cccc(Cl)c3o2)C1 (stereo in doubt) [Example B025-A, Cis-3-[[5-bromo-2-(8-chloro-4-oxo-chromen-2-yl)phenoxy]methyl]cyclobutanecarboxylic acid]	4.92

From patent US11708344B2, “Flavone derivatives for the treatment and prophylaxis of hepatitis B virus disease” (Hoffmann-La Roche Inc., priority 2018, dated 2023)
